Test results reported in patent publication US10732169B2, “Personalized healthcare P4 drug monitoring system and method” (eNano Health Limited, priority 2016, dated 2020).

Key:
[1] = LC/MS, all subjects, FIG. 15
Description: In a third illustrative example, the detection of a HIV drug in saliva is conducted according to the claimed invention. […] Sample analysis hardware includes chromatography and mass spectrometry functionality and can additionally include genetic sequencing functionality.

[2] = Keppra levels in dried spot saliva samples over time after taking the drug, LC/MS; assay type: in vivo; details: two separate days, FIG. 14
Description: FIGS. 9 to 14 further illustrate the detection of Keppra in saliva. Levetiracetam (Trade Name: Keppra), is a medication used to treat epilepsy. In the illustrative example, the saliva specimens are collected on 2 separate days. On each day, subject is asked to collect blood/saliva samples before taking Keppra (time=0 hour), and after taking the drug (time=1, 2, 4, 8 hours). Saliva samples are collected in both liquid and dried spot forms. Blood samples are collected in dried spot form and are stored at room temperature before transportation for analytical laboratory analysis using LC/MS.
FIG. 13 is a graphical representation of Keppra levels using dried saliva comparatively measured. Graphical representation 1301 illustrates the comparison of dried saliva spot samples over two separate days.
FIG. 14 is a graphical representation of Keppra levels using dried saliva comparatively measured. The half-life of Keppra is known to be 5-8 hours. […] Consequently, dried spot saliva samples reliably reflect clearance of Keppra from the body according to the claimed invention.

[3] = known value; cited from earlier work

Structure (SMILES)	detection of drug fragment ion in saliva [1]	time after which Keppra level depleted by half [2] [h]	half-life [3] [h]
Nc1nc(=O)n([C@@H]2CS[C@H](CO)O2)cc1F [FTC]	detection of the FTC fragment ion	–	–
CC[C@@H](C(N)=O)N1CCCC1=O [Keppra, Levetiracetam]	–	8	5 to 8
